Biological target: T1, human sodium-dependent glucose transporter 1 (SGLT1, SLC5A1) (Homo sapiens, UniProt P13866)
T1 construct: Bases 11 to 2005 correspond to the complete coding region of human SGLT1; expressed in transfected cells
T1 sequence (P13866 1-664): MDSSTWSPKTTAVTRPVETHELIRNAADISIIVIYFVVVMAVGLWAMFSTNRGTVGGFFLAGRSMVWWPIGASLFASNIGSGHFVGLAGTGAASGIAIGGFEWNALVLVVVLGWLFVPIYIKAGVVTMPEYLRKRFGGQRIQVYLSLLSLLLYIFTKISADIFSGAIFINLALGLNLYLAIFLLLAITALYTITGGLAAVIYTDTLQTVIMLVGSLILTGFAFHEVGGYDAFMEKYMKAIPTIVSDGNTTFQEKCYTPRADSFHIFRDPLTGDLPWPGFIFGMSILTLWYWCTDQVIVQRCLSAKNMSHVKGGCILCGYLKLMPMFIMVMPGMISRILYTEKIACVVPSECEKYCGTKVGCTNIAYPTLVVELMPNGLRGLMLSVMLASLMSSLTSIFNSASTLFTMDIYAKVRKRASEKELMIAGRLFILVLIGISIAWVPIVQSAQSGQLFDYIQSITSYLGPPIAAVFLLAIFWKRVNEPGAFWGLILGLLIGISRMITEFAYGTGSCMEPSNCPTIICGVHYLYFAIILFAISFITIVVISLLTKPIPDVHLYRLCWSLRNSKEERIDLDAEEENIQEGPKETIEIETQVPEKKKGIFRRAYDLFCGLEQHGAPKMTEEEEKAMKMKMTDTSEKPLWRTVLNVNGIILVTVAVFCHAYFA
Assay: Inhibition of methyl α-D-glucopyranoside (α-MDG) uptake in CHO-TRex-hSGLT1 cells
Assay type: cell-based
Settings: in vitro uptake of methyl α-D-glucopyranoside, 50 μM α-MDG, 30 min at room temperature
Excerpt: A further method for testing the activity of the compounds is the inhibition of the transport activity of the human sodium-dependent glucose transporter 1 (SGLT1, SLC5A1) in vitro:
1. Cloning of an Expression Vector for Human SGLT1
The cDNA for human SGLT1 was introduced into the pcDNA4/TO vector (Invitrogen) by standard methods of molecular biology as described in Sambrook et al. (Sambrook et al., Molecular Cloning, A Laboratory Manual, 2nd Edition). […] Bases 11 to 2005 correspond to the complete coding region of human SGLT1.
2. Preparation of a Recombinant Cell Line with Inducible Expression of Human SGLT1
The expression vector for human SGLT1 was introduced into CHO-TRex cells (Invitrogen) by means of FuGene6 lipofection (Roche). To select single cell clones, 600 μg/mI Zeocin (Invitrogen) was added to the cell culture medium (Nutrient Mixture F-12 (Ham), (Invitrogen) supplemented with 10% fetal calf serum (BD Biosciences), 10 μg/ml blasticidin S (CN Biosciences), 100 units/ml penicillin, 100 units/ml streptomycin). The functionality of the single cell clones resulting from the selection was tested via their uptake activity for radiolabeled methyl α-D-glucopyranoside. The cell clone with the greatest uptake activity for methyl α-D-glucopyranoside, referred to as CHO-TRex-hSGLT1 hereinafter, was selected for further experiment, and cultivation was continued in the presence of 600 μg/ml of zeocin.
3. Measurement of the Inhibitory Effect of Test Substances on the Uptake of Methyl […]-D-glucopyranoside ([…]-MDG)
CHO-TRex-hSGLT1 cells were seeded in a concentration of 50 000 cells per well in Cytostar-T scintillating 96-well plates (Amersham Biosciences) in cell culture medium and cultivated for 24 h. Expression of the recombinant human SGLT1 was induced by adding 1 pg/mI tetracyclin for a further 24 h. For α-MDG uptake experiments, the cells were washed with PBS and then starved (PBS supplemented with 10% fetal calf serum) at 37° C. for one hour. After a further washing step with transport assay buffer (140 mM sodium chloride, 2 mM potassium chloride, 1 mM magnesium chloride, 1 mM calcium chloride, 10 mM HEPES/Tris, pH 7.5), the cells were incubated either in the absence or presence of test substances varying in concentration at room temperature for 15 min. The test substances were diluted appropriately in transport assay buffer (40 μl/well) starting from a 10 mM stock solution in dimethyl sulfoxide.
The assay was then started by adding 10 μl of a mixture of radiolabeled methyl α-D-[U-^14C]glucopyranoside (Amersham) and unlabeled methyl α-D-glucopyranoside (Acros). The final concentration of methyl α-D-glucopyranoside in the assay was 50 μM. After an incubation time of 30 min at room temperature, the reaction was stopped by adding 50 µl/well of 10 mM methyl α-D-glucopyranoside in transport assay buffer (4° C.), and the radioactivity uptake by the cells was determined in a MicroBeta Scintillation Microplate Reader (Wallac). The half-maximum inhibitory effect of the test substances (IC50) was determined in the following way: • 1. Establishment of the value for 0% inhibition. This is the measurement in the absence of substance, measured in sodium-containing transport assay buffer. • 2. Establishment of the value for 100% inhibition. This is the measurement in the absence of substance, measured in sodium-free transport assay buffer (140 mM choline chloride, 2 mM potassium chloride, 1 mM magnesium chloride, 1 mM calcium chloride, 10mM HEPES/Tris, pH7.5). • 3. Calculation of the percentage inhibitions for the measurements carried out in the presence of various concentrations of test substance. It was then possible to ascertain therefrom the concentration of test substance which reduced the uptake of methyl α-D-glucopyranoside by 50% (IC50).
IC50 values of test substances (μM) [in vitro testing of the uptake of methyl α-D-glucopyranoside]

SMILES	IC50
CC(C)c1[nH]nc(OC2OC(CO)C(F)C(O)C2O)c1Cc1ccc(/C=C/CC(=O)NCCC(N)=O)cc1 (stereo not drawn) [Example 3]	43 nM
Cc1[nH]nc(OC2OC(CO)C(F)C(O)C2O)c1Cc1ccc(CCCC(=O)NCCC(N)=O)cc1 (stereo not drawn) [Example 6]	133 nM
CC(C)c1[nH]nc(OC2OC(CO)C(F)C(O)C2O)c1Cc1ccc(CCCC(=O)N[C@@H](CO)C(N)=O)cc1 (stereo partly drawn) [Example 9]	81 nM
CC(C)c1[nH]nc(OC2OC(CO)C(F)C(O)C2O)c1Cc1ccc(CCCC(=O)N2CCN(C)CC2)cc1 (stereo not drawn) [Example 12]	139 nM
CC(C)c1[nH]nc(OC2OC(CO)C(F)C(O)C2O)c1Cc1ccc(CCCC(=O)N2CCCC2)cc1 (stereo not drawn) [Example 15]	170 nM
CC(C)c1[nH]nc(OC2OC(CO)C(F)C(O)C2O)c1Cc1ccc(CCC(=O)NC(C)(C)CO)cc1 (stereo not drawn) [Example 18]	80 nM
CC(C)c1[nH]nc(OC2OC(CO)C(F)C(O)C2O)c1Cc1ccc(CCCC(=O)NC(CO)(CO)CO)cc1 (stereo not drawn) [Example 21]	47 nM
CC(C)c1[nH]nc(OC2OC(CO)C(F)C(O)C2O)c1Cc1ccc(CCCC(=O)NCCCN)cc1 (stereo not drawn) [Example 22]	144 nM
CC(C)c1[nH]nc(OC2OC(CO)C(F)C(O)C2O)c1Cc1ccc(CCCC(=O)N[C@@H]2O[C@H](CO)[C@@H](O)[C@H](O)[C@H]2O)cc1 (stereo partly drawn) [Example 24]	208 nM
CCCNC(=O)NCCCc1ccc(Cc2c(OC3OC(CO)C(F)C(O)C3O)n[nH]c2C)cc1 (stereo not drawn) [Example 31]	252 nM
CC(C)c1[nH]nc(O[C@@H]2O[C@H](CO)[C@@H](F)[C@H](O)[C@H]2O)c1Cc1ccc(C(=O)NCC(N)=O)cc1 [Example 33]	70 nM
CC(C)c1[nH]nc(OC2OC(CO)C(F)C(O)C2O)c1Cc1ccc(CCCNC(=O)N2CCN(C)CC2)cc1 (stereo not drawn) [Example 36]	43 nM

Reference: US7820804B2, “Fluoroglycoside derivatives of pyrazoles, medicaments containing these compounds, and the use thereof” (Sanofi-Aventia Deutschland GmbH, priority 2004, dated 2010)
